Results from PubChem BioAssay (NCI).
Several values for one entry are separate records, joined by “and”; a condition that tells them apart may be missing. Identical values can stand only once.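 1) Cells in 96-well plates. 2) Compound, 48 h, 5 concentrations. 3) Linear interpolation between surrounding doses. 4) Unreached endpoint = highest concentration. GI50 is the concentration that inhibits growth by half. TGI: concentration producing complete growth inhibition.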

Columns and labels:
Assay in all cases: NCI anticancer screen, dose series, 48 h
[1] = system: A549 NSCLC
[2] = system: ACHN renal
[3] = system: CCRF-CEM leukemia
[4] = system: EKVX NSCLC
[5] = system: HCT-15 colon
[6] = system: LOX IMVI melanoma
[7] = system: MDA-MB-435
[8] = system: NCI-H23 lung
[9] = system: SN12C renal
[10] = system: SR leukemia

Compound: O=C(c1ccccc1Nc1ccnc(C(F)(F)F)c1)N1CCN(c2cccc(Cl)c2)CC1
- GI50 [1]: 21.2 µM
- TGI [1]: > 100 µM
- GI50 [2]: 22.9 µM
- TGI [2]: 86.1 µM
- GI50 [3]: 11.2 µM
- TGI [3]: > 84.5 µM
- GI50 [4]: 15.4 µM
- TGI [4]: > 87.5 µM
- GI50 [5]: 24.1 µM
- TGI [5]: > 100 µM
- GI50 [6]: 15.8 µM
- TGI [6]: 32.2 µM
- GI50 [7]: 16.1 µM
- TGI [7]: 66.7 µM
- GI50 [8]: 17.6 µM
- TGI [8]: > 100 µM
- GI50 [9]: 16.4 µM
- TGI [9]: 45 µM
- GI50 [10]: 13.5 µM
- TGI [10]: > 58.7 µM

Compound: C#CCN1C(=O)/C(=c2\sc3n(c2=O)C2C(NN=3)N(CC)C(=O)N2CC)c2ccccc21 (centres undefined)
- GI50 [1]: 0.968 µM
- TGI [1]: > 100 µM
- GI50 [2]: 0.65 µM
- TGI [2]: > 58.2 µM
- GI50 [3]: 0.381 µM
- TGI [3]: > 100 µM
- GI50 [4]: 1.8 µM
- TGI [4]: > 100 µM
- GI50 [5]: 0.394 µM
- TGI [5]: > 100 µM
- GI50 [6]: 0.73 µM
- TGI [6]: > 100 µM
- GI50 [7]: 0.214 µM
- TGI [7]: 0.507 µM
- GI50 [8]: 1.51 µM
- TGI [8]: 37.2 µM
- GI50 [9]: 0.797 µM
- TGI [9]: > 100 µM
- GI50 [10]: 0.344 µM
- TGI [10]: > 100 µM

Compound: C=C1CCC2C3(C)COC(c4ccc(NC(C)=O)cc4)OC3CCC2(C)C1C/C=C1/C(=O)OCC1O (centres undefined)
- GI50 [1]: 5.03 µM
- TGI [1]: > 100 µM
- GI50 [2]: 7.63 µM
- TGI [2]: > 100 µM
- GI50 [3]: 3.08 µM
- TGI [3]: > 100 µM
- GI50 [4]: 2.71 µM
- TGI [4]: > 100 µM
- GI50 [5]: 9.58 µM
- TGI [5]: > 100 µM
- GI50 [6]: 21 µM
- TGI [6]: > 100 µM
- GI50 [7]: 8.8 µM
- TGI [7]: > 100 µM
- GI50 [8]: 5.13 µM
- TGI [8]: > 100 µM
- GI50 [9]: > 100 µM
- TGI [9]: > 100 µM
- GI50 [10]: 2.33 µM
- TGI [10]: 85.1 µM

Compound: O=C1c2ccccc2C(=O)c2c(NCCCNCCO)ccc(NCCCNCCO)c21
- TGI [1]: 47.3 µM
- TGI [2]: 25.5 µM
- TGI [3]: 23.1 µM
- TGI [4]: 26.3 µM
- TGI [5]: 29.8 µM
- TGI [6]: 14.9 µM
- TGI [7]: 25.7 µM
- TGI [8]: 23.9 µM
- TGI [9]: 14.4 µM
- TGI [10]: 20.8 µM

Compound: O=C1c2ccccc2C(=O)c2c1ccc(C(Br)Br)c2[N+](=O)[O-]
- GI50 [1]: 17.6 µM
- TGI [1]: 33.6 µM
- GI50 [2]: 1.53 µM
- TGI [2]: 2.86 µM
- GI50 [3]: 0.582 µM
- TGI [3]: 2.53 µM
- GI50 [4]: 1.96 µM
- TGI [4]: 4.58 µM
- GI50 [5]: 1.52 µM
- TGI [5]: 2.93 µM
- GI50 [6]: 1.27 µM
- TGI [6]: 2.59 µM
- GI50 [7]: 1.76 µM
- TGI [7]: 3.29 µM
- GI50 [8]: 1.6 µM
- TGI [8]: 4.34 µM
- GI50 [9]: 1.83 µM
- TGI [9]: 3.86 µM
- GI50 [10]: 0.259 µM
- TGI [10]: 1.75 µM

Compound: CN1/C(=C\C(I)C(I)C2=[N+](C)c3ccccc3C2(C)C)C(C)(C)c2ccccc21 (centres undefined)
- GI50 [1]: 0.283 µM
- TGI [1]: 18.3 µM
- GI50 [2]: 0.665 µM
- TGI [2]: 26.4 µM
- GI50 [3]: 0.226 µM
- TGI [3]: 31 µM
- GI50 [4]: 0.369 µM
- TGI [4]: 36.7 µM
- GI50 [5]: 0.997 µM
- TGI [5]: > 37.6 µM
- GI50 [6]: 0.295 µM
- TGI [6]: 13.4 µM
- GI50 [7]: 0.26 µM
- TGI [7]: 11.6 µM
- GI50 [8]: 0.114 µM
- TGI [8]: 9.33 µM
- GI50 [9]: 0.277 µM
- TGI [9]: 9.86 µM
- GI50 [10]: 0.151 µM
- TGI [10]: 13.8 µM

Compound: COc1ccc(-c2ccc3c(NC(=O)C4CC4)n[nH]c3n2)cc1
- GI50 [1]: > 25 µM
- TGI [1]: > 25 µM
- GI50 [2]: > 25 µM
- TGI [2]: > 25 µM
- GI50 [3]: > 25 µM
- TGI [3]: > 25 µM
- GI50 [4]: > 25 µM
- TGI [4]: > 25 µM
- GI50 [5]: > 25 µM
- TGI [5]: > 25 µM
- GI50 [6]: > 25 µM
- TGI [6]: > 25 µM
- GI50 [7]: > 25 µM
- TGI [7]: > 25 µM
- GI50 [8]: > 25 µM
- TGI [8]: > 25 µM
- GI50 [9]: > 25 µM
- TGI [9]: > 25 µM
- GI50 [10]: > 25 µM
- TGI [10]: > 25 µM

Compound: O=C(NCc1cccnc1)/C(=C\c1ccc(Br)cc1)S(=O)(=O)c1ccccc1
- GI50 [1]: 1.48 µM
- TGI [1]: 3.31 µM
- GI50 [2]: 0.719 µM
- TGI [2]: 1.97 µM
- GI50 [3]: 0.315 µM
- TGI [3]: 4.5 µM
- GI50 [4]: 1.3 µM
- TGI [4]: 2.61 µM
- GI50 [5]: 0.536 µM
- TGI [5]: 2.27 µM
- GI50 [6]: 0.45 µM
- TGI [6]: 1.73 µM
- GI50 [7]: 0.477 µM
- TGI [7]: 1.73 µM
- GI50 [8]: 0.935 µM
- TGI [8]: 2.3 µM
- GI50 [9]: 0.727 µM
- TGI [9]: 2.19 µM
- GI50 [10]: 0.309 µM
- TGI [10]: 2.36 µM

Compound: CC1(C)N=C(N)N=C(N)N1c1cccc(C#N)c1
- GI50 [1]: 0.932 µM
- TGI [1]: > 100 µM
- GI50 [2]: 4.09 µM
- TGI [2]: > 100 µM
- GI50 [3]: 3.05 µM
- TGI [3]: > 100 µM
- GI50 [4]: 1.09 µM
- TGI [4]: > 100 µM
- GI50 [5]: 5.65 µM
- TGI [5]: > 100 µM
- GI50 [6]: 0.605 µM
- TGI [6]: > 100 µM
- GI50 [7]: 0.594 µM
- TGI [7]: > 100 µM
- GI50 [8]: 5.32 µM
- TGI [8]: > 100 µM
- GI50 [9]: 6.1 µM
- TGI [9]: > 100 µM
- GI50 [10]: 4.36 µM
- TGI [10]: > 100 µM

Compound: CCCS(=O)(=O)Nc1ccc(F)c(C(=O)c2c[nH]c3ncc(-c4ccc(Cl)cc4)cc23)c1F
- GI50 [1]: 3.46 µM and 6.38 µM
- TGI [1]: 25 µM and > 10 µM
- GI50 [2]: 3.92 µM and 4.77 µM
- TGI [2]: 15.9 µM and > 10 µM
- GI50 [3]: 4.01 µM and 5.42 µM
- TGI [3]: 23.7 µM and > 10 µM
- GI50 [4]: 6.86 µM and > 10 µM
- TGI [4]: 40.7 µM and > 10 µM
- GI50 [5]: 4.45 µM and 4.1 µM
- TGI [5]: 17.7 µM and > 10 µM
- GI50 [6]: 1.47 µM and 1.27 µM
- TGI [6]: 15.2 µM and > 10 µM
- GI50 [7]: 0.107 µM and 0.153 µM
- TGI [7]: 8.86 µM and > 10 µM
- GI50 [8]: 7.82 µM and > 10 µM
- TGI [8]: 26.6 µM and > 10 µM
- GI50 [9]: 4.52 µM and > 8.4 µM
- TGI [9]: 21.9 µM and > 10 µM
- GI50 [10]: 2.1 µM and 2.92 µM
- TGI [10]: 13.9 µM and > 10 µM

Compound: C/C1=C\[C@H](C)C[C@H](C)OC(=O)C[C@H](c2ccc(O)cc2)NC(=O)[C@@H](Cc2c(Br)[nH]c3ccccc23)N(C)C(=O)[C@H](C)NC(=O)[C@@H](C)C1
- GI50 [1]: 0.0318 µM
- GI50 [2]: 0.0228 µM
- TGI [2]: 0.0894 µM
- GI50 [3]: 0.114 µM
- TGI [3]: > 23.7 µM
- GI50 [4]: 0.132 µM
- TGI [4]: 0.746 µM and 1.83 µM
- GI50 [5]: 0.488 µM
- TGI [5]: 6.01 µM
- GI50 [6]: 0.0135 µM
- TGI [6]: 0.317 µM and 0.0533 µM
- GI50 [7]: 0.0445 µM
- TGI [7]: 17.7 µM
- GI50 [8]: 0.114 µM
- TGI [8]: 1.05 µM
- GI50 [9]: 0.0738 µM
- TGI [9]: > 45.9 µM
- GI50 [10]: 0.587 µM
- TGI [10]: 4.21 µM
